# According to patent US10770169B2, “Method of providing a treatment to a subject based on a dynamic pathway map” (THE REGENTS OF THE UNIVERSITY OF CALIFORNIA, priority 2010, dated 2020):
# Read-outs that look alike come from different tables or passages of the source.
# Experiments:
# [1] = tested on: panel of 55 breast cancer cell lines; experiment: Cell growth inhibition assay (Cell Titer Glo, 72 h, 9 doses; GI50, TGI, LC50); assay type: cell-based, human; conditions: Homo sapiens, read-out: GI50 (converted)
# [2] = tested on: luminal, basal, claudin-low and ERBB2AMP breast cancer cell lines; experiment: Associations of clinically relevant subtypes and response (non-parametric ANOVA or t-test on GI50 ranks); assay type: cell-based, human; conditions: Table 6; most sensitive subtype, FDR p<0.20
# Outline: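 GI50 values were compared between cell-line subtype groups by non-parametric ANOVA or t-test on ranks. P-values from three test sets were combined and FDR-corrected. Significant three-group effects were followed by post-hoc comparison of each group against all others, and FDR p<0.20 counted as significant.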
structure (smiles),measurement,setting,value
CCNCCCNC/C=C\CNCCCNCC [CGC-11047],GI50,"[1]; 600MPE cell line, censored GI50 values",468 µM
same,GI50,"[1]; AU565, AU565 cell line, censored GI50 values",288 µM
same,GI50,"[1]; AU565, cell line AU565",288 µM
same,GI50,"[1]; BT-474, BT474 cell line, censored GI50 values",269 µM
same,GI50,"[1]; BT-474, cell line BT474",269 µM
same,GI50,"[1]; BT-483, BT483 cell line, censored GI50 values",589 µM
same,GI50,"[1]; BT-483, cell line BT483",589 µM
same,GI50,"[1]; BT-549, BT549 cell line, censored GI50 values",29.5 µM
same,GI50,"[1]; BT-549, cell line BT549",29.5 µM
same,GI50,"[1]; CAMA-1, CAMA1 cell line, censored GI50 values",1260 µM
same,GI50,"[1]; CAMA-1, cell line CAMA1",1260 µM
same,GI50,"[1]; HCC38, HCC38 cell line, censored GI50 values",11.7 µM
same,GI50,"[1]; HCC38, cell line HCC38",11.7 µM
same,GI50,"[1]; HCC70, HCC70 cell line, censored GI50 values",2.09 µM
same,GI50,"[1]; HCC70, cell line HCC70",2.09 µM
same,GI50,"[1]; HCC202, HCC202 cell line, censored GI50 values",14.5 µM
same,GI50,"[1]; HCC202, cell line HCC202",14.5 µM
same,GI50,"[1]; HCC1143, HCC1143 cell line, censored GI50 values",112 µM
same,GI50,"[1]; HCC1143, cell line HCC1143",112 µM
same,GI50,"[1]; HCC1187, HCC1187 cell line, censored GI50 values",1550 µM
same,GI50,"[1]; HCC1187, cell line HCC1187",1550 µM
same,GI50,"[1]; HCC1395, HCC1395 cell line, censored GI50 values",87.1 µM
same,GI50,"[1]; HCC1395, cell line HCC1395",87.1 µM
same,GI50,"[1]; HCC1419, HCC1419 cell line, censored GI50 values",14.1 µM
same,GI50,"[1]; HCC1419, cell line HCC1419",14.1 µM
same,GI50,"[1]; HCC1428, HCC1428 cell line, censored GI50 values",204 µM
same,GI50,"[1]; HCC1428, cell line HCC1428",204 µM
same,GI50,"[1]; HCC1500, HCC1500 cell line, censored GI50 values",63.1 µM
same,GI50,"[1]; HCC1500, cell line HCC1500",63.1 µM
same,GI50,"[1]; HCC1806, HCC1806 cell line, censored GI50 values",74.1 µM
same,GI50,"[1]; HCC1806, cell line HCC1806",74.1 µM
same,GI50,"[1]; HCC1937, HCC1937 cell line, censored GI50 values",6.92 µM
same,GI50,"[1]; HCC1937, cell line HCC1937",6.92 µM
same,GI50,"[1]; HCC1954, HCC1954 cell line, censored GI50 values",0.692 µM
same,GI50,"[1]; HCC1954, cell line HCC1954",0.692 µM
same,GI50,"[1]; HCC2185 cell line, censored GI50 values",407 µM
same,GI50,"[1]; HCC3153 cell line, censored GI50 values",5.75 µM
same,GI50,"[1]; LY2 cell line, censored GI50 values",1510 µM
same,GI50,"[1]; MCF7, MCF7 cell line, censored GI50 values",85.1 µM
same,GI50,"[1]; MCF7, cell line MCF7",85.1 µM
same,GI50,"[1]; MDA-MB-134-VI, MDAMB134VI cell line, censored GI50 values",1070 µM
same,GI50,"[1]; MDA-MB-157, MDAMB157 cell line, censored GI50 values",1020 µM
same,GI50,"[1]; MDA-MB-157, cell line MDAMB157",1020 µM
same,GI50,"[1]; MDA-MB-175-VII, MDAMB175VII cell line, censored GI50 values",617 µM
same,GI50,"[1]; MDA-MB-231, MDAMB231 cell line, censored GI50 values",2510 µM
same,GI50,"[1]; MDA-MB-231, cell line MDAMB231",2510 µM
same,GI50,"[1]; MDA-MB-361, MDAMB361 cell line, censored GI50 values",708 µM
same,GI50,"[1]; MDA-MB-361, cell line MDAMB361",708 µM
same,GI50,"[1]; MDA-MB-415, MDAMB415 cell line, censored GI50 values",75.9 µM
same,GI50,"[1]; MDA-MB-415, cell line MDAMB415",75.9 µM
same,GI50,"[1]; MDA-MB-436, MDAMB436 cell line, censored GI50 values",380 µM
same,GI50,"[1]; MDA-MB-436, cell line MDAMB436",380 µM
same,GI50,"[1]; MDA-MB-453, MDAMB453 cell line, censored GI50 values",501 µM
same,GI50,"[1]; MDA-MB-453, cell line MDAMB453",501 µM
same,GI50,"[1]; MDA-MB-468, MDAMB468 cell line, censored GI50 values",0.891 µM
same,GI50,"[1]; MDA-MB-468, cell line MDAMB468",0.891 µM
same,GI50,"[1]; SK-BR-3, cell line SKBR3",5010 µM
same,GI50,"[1]; SUM52PE, cell line SUM52PE",3.55 µM
same,GI50,"[1]; SUM149PT, SUM149PT cell line, censored GI50 values",28.8 µM
same,GI50,"[1]; SUM149PT, cell line SUM149PT",28.8 µM
same,GI50,"[1]; SUM185PE, cell line SUM185PE",501 µM
same,GI50,"[1]; SUM1315MO2, SUM1315MO2 cell line, censored GI50 values",708 µM
same,GI50,"[1]; SUM-159-PT, SUM159PT cell line, censored GI50 values",107 µM
same,GI50,"[1]; SUM-159-PT, cell line SUM159PT",107 µM
same,GI50,"[1]; T47D, cell line T47D",9.33 µM
same,GI50,"[1]; UACC-812, cell line UACC812",339 µM
same,GI50,"[1]; UACC-893, cell line UACC893",2090 µM
same,GI50,"[1]; ZR-75-1, cell line ZR751",501 µM
same,GI50,"[1]; ZR-75-30, cell line ZR7530",5010 µM
same,GI50,"[1]; ZR-75B, cell line ZR75B",562 µM
same,GI50,[1]; cell line 600MPE,468 µM
same,GI50,[1]; cell line HCC2185,407 µM
same,GI50,[1]; cell line HCC3153,5.75 µM
same,GI50,[1]; cell line LY2,1510 µM
same,GI50,[1]; cell line MDAMB134V,1070 µM
same,GI50,[1]; cell line MDAMB175V,617 µM
same,GI50,[1]; cell line SUM1315MO,708 µM
same,Subtype specificity,[2],Basal
